Columns and labels:
[1] = system: spinal cord microglia of SOD1 G93A mice; test: Microglia morphology subclassification in lumbar spinal cord; type: in vivo, mouse
Text: For the evaluation of microglia morphology at least 10 randomly chosen cells per ventral horn were examined with a 63× objective. Cells were classified as “thin ramified”, “stouter ramified” and “rounded” according to a recent morphologic description by Graeber et al. (Graeber, M. B. (2010) Science 330(6005): 783-788). A ramified cell was defined as a cell that has at least 2 processes that are at least twice the size of cell body. Thin ramified cells were defined to have a small diameter of ramifications (<0.5 μm) and a small cell soma diameter (<5 μm). Stoutly ramified cells were defined with thicker ramifications (>0.5 μm) and a larger cell soma diameter (>5 μm).
In order to further characterize the differential microglial behaviour in the treatment groups at d100, we performed a morphologic subclassification of microglial cells, as described above under the heading “Quantitative evaluation of spinal cord motoneurons and astroglia, sciatic nerve axons and NMJ”. […] The latter two morphologic cell types are considered to reflect a state of enhanced microglial activation in comparison to a surveillance type which is characterized by smaller cell bodies and thin ramified processes (exemplary microscopic images are shown in FIG. 21 C).

[2] = system: mono-cultures of primary motoneurons; test: Kainic acid toxicity in motoneuron mono-culture; type: cell-based
[3] = system: spinal cord microglia of SOD1 G93A mice; test: Iba1 immunopositive microglia count in spinal cord anterior horn; type: in vivo, mouse
Protocol: Spinal cord sections selected for immunohistochemical processing were first rehydrated. Then antigen-retrieval was performed for 4 h in TBS at 60° C. for later GFAP or Iba1 labeling and for 30 min in sodium citrate (pH 9.0) at 80° C. for later ChAT labeling. After washing for one time in PBS the sections were incubated at room temperature either in PBS and 10% of normal goat serum for later GFAP labeling or in PBS and 5% normal donkey serum for later ChAT labeling to block unspecific binding. The primary antibodies (anti-ChAT 1:100, AB144 P, Millipore; anti-GFAP 1:200, DAKO; anti-Iba1 1:500, WAKO, Osaka, Japan) were applied at 4° C. for one night for GFAP and for three nights for ChAT. The secondary antibodies (Cy3 anti-goat or Cy2/Dylight anti rabbit; both Dianova) were applied on separate sections 1:300 for 1 h at room temperature. Then a nuclear counter-stain with DAPI (4,6-diamidino-2-phenylindole) (Sigma-Aldrich) was performed before mounting in Moviol (Hoechst, Frankfurt, Germany).
Astrogliosis and microgliosis were evaluated by the quantification of GFAP or Iba1 positive cells in the ventral horn of lumbar spinal cord sections, respectively. Again, the area of the ventral horn was defined and GFAP or Iba1 positive cells were manually counted. In the d50 treatment group analyzed at death, a total of 20 mice was counted from the vehicle (3 male, 3 female), Fas30 (3 male, 3 female), Fas100 (3 male, 3 female) and wildtype (1 male, 1 female) group. In the d50 treatment group analyzed at d100, a total of 20 mice was counted from the vehicle (3 male, 3 female), Fas30 (3 male, 3 female), Fas100 (3 male, 3 female) and wildtype (1 male, 1 female) group.
The extent of microglial cell dissemination in the lumbar spinal cord was evaluated with a marker of activated microglia (Iba1) as described above under the heading “Quantitative evaluation of spinal cord motoneurons and astroglia, sciatic nerve axons and NMJ”.

[4] = system: spinal cord motoneurons of SOD1 G93A mice; test: ChAT positive motoneurons in lumbar spinal cord sections; type: in vivo, mouse; conditions: for ChAT cell numbers per lumbar spinal cord section / motoneuron count: time of death; for ChAT cell numbers per lumbar spinal cord section: vehicle 6.1±0.95
Protocol: After deep anaesthesia, mice were transcardially perfused with PBS solution followed by 4% paraformaldehyde. Spinal cords, sciatic nerves and gastrocnemius muscles were removed. Spinal cords and gastrocnemius muscles were then postfixed for 2 h in 4% paraformaldehyde. Thereafter, the tissue was dehydrated in 30% sucrose overnight and kept at -20° C. until further processing. Coronal sections of the lumbar spinal cord (L3-L6) (20 μm) and horizontal sections of the tibial muscle (35 μm) were prepared using a Leica Kryostat and collected on gelatine-coated glass slides. Spinal cord sections selected for immunohistochemical processing were first rehydrated. Then antigen-retrieval was performed for 4 h in TBS at 60° C. for later GFAP or Iba1 labeling and for 30 min in sodium citrate (pH 9.0) at 80° C. for later ChAT labeling. […] The primary antibodies (anti-ChAT 1:100, AB144 P, Millipore; anti-GFAP 1:200, DAKO; anti-Iba1 1:500, WAKO, Osaka, Japan) were applied at 4° C. for one night for GFAP and for three nights for ChAT. The secondary antibodies (Cy3 anti-goat or Cy2/Dylight anti rabbit; both Dianova) were applied on separate sections 1:300 for 1 h at room temperature. […] In order to quantify motoneuron numbers in coronal cryosections from the lumbar spinal (L3-L6) cord first the area of the ventral horn was defined according to the criteria from Kong et al. (Kong and Xu 1998). […] At least five sections per mouse spinal cord that were 100 μm apart over a length of at least 500 μm isolated from the lumbar spinal cord were counted. In the d50 treatment group analyzed at death, a total of 20 mice was counted from the vehicle (3 male, 3 female), Fas30 (3 male, 3 female), Fas100 (3 male, 3 female) and wildtype (1 male, 1 female) group. In the […] treatment group analyzed at death, a total of 20 mice was counted from the vehicle (3 male, 3 female), Fas30 (3 male, 3 female), and Fas100 (3 male, 3 female) and wildtype (1 male, 1 female) group. In the d50 treatment group analyzed at […], a total of 20 mice was counted from the vehicle (3 male, 3 female), Fas30 (3 male, 3 female), Fas100 (3 male, 3 female) and wildtype (1 male, 1 female) group.

[5] = system: SOD1 G93A mouse model of ALS; test: Rotarod test (motor coordination), time to failure of 180 s; type: in vivo
Text: From a patient's point of view overall survival is not the only parameter of a successful therapy. Many recent therapeutic studies in humans rather evaluate an increased time with improved quality of life. An improved motor function could be one parameter that is relevant for the quality of daily life and therefore the inventors chose two different tests to monitor motor function in the present animal model. The rotarod test evaluates fine motor coordination and is a very sensitive test for the ability to move on an unstable underground. Evaluating motor coordination by subjecting the animals to the rotarod test, the presymptomatic female treatment group failed later in the task to reach a total running time of 180 s (122.5 days) in comparison to the vehicle-treated group (114.2 days).

For `O=S(=O)(c1cccc2cnccc12)N1CCCNCC1` [Fasudil, 1-(5-isoquinolinesulfonyl)homopiperazine], the rounded microglia ([1]; d100, Fasudil 30, vehicle SOD1G93A 0.7±0.2%) was 0.5±0.1%, the “microglia with stout ramified processes” value ([1]; d100, Fasudil 30, vehicle SOD1G93A 46.7±6.3%) was 70.8±5.3% and the “microglia with thin ramifications” value ([1]; d100, Fasudil 30, vehicle SOD1G93A 52.6±6.3%) was 28.7±5.3%. The microglial morphology ([1]; disease end-stage, all treatment groups) was “no gross alterations”, the “survival of KA exposed motoneurons” value [2] was “effectively protecting” and the “Iba1 immunopositive microglial cells” value ([3]; d100, Fasudil 30, vehicle SOD1G93A 27.8±4.7, wildtype 14.0±2.8) was 39.5±3.9 cells/0.5 mm^2. The “Iba1 immunopositive microglial cells” value ([3]; disease end-stage, Fas30, vehicle 43.2±4.2) was 48.8±3.3 cells/0.5 mm^2, the “Iba1 immunopositive microglial cells” value ([3]; disease end-stage, Fas100, vehicle 43.2±4.2) was 50.2±4.7 cells/0.5 mm^2 and the “motoneuron numbers differentiated by cell body size” value ([4]; day 100, female, Fas30 vs transgenic vehicle, trend not significant) was “more motoneurons in all size groups”. For the same compound, the “cumulative cell body size per anterior horn section” value ([4]; day 100, female, Fasudil vs vehicle) was “defined trend to be larger”, the “numbers of ChAT positive motoneurons” value ([4]; day 100, female, presymptomatic Fas30 vs transgenic vehicle) was “strong trend of elevated numbers of motoneurons” and the “ChAT cell numbers per lumbar spinal cord section” value ([4]; female, presymptomatic F100 (high dose)) was 7.3±1.00. The “ChAT cell numbers per lumbar spinal cord section” value ([4]; female, presymptomatic Fas30) was 8.6±0.36, the motoneuron count ([4]; female, symptomatic treatment groups) was “did not differ” and the motoneuron count ([4]; male, presymptomatic Fas30 or Fas100) was “did not profit”. The motoneuron count ([4]; male, symptomatic Fas30 vs vehicle) was “higher motoneuron numbers”, the rotarod performance ([5]; male, presymptomatic Fas30) was “slight non-significant trend to improved performance” and the “time to failure to reach 180 s rotarod running time” value ([5]; presymptomatic female treatment group, vehicle 114.2 days) was 122.5 days. For the same compound, the rotarod performance ([5]; symptomatic treatment) was “not able to improve rotarod performances”.

From patent US9980972B2, “Rho kinase inhibitors for use in treating familial amyotrophic lateral sclerosis” (GEORG-AUGUST-UNIVERSITÄT GÖTTINGEN STIFTUNG ÖFFENTLICHEN …, priority 2012, dated 2018)
